Laboratory results: EP0131252B1, “Thymosin alpha 11” (F. HOFFMANN-LA ROCHE AG, priority 1983, dated 1989)

Key:
Candida albicans = test: Protection of mice against infection with Candida albicans (daily i.p. treatment, intravenous challenge); type: in vivo
Description: The biological activity of thymosin a1 can be determined by utilizing in vivo assays known in the art. Thus, for example, inbred strains of mice are known to vary in their susceptibility to infection with C. albicans. Thus, mice of such strains as C3 H/HeJ or CBA/CaJ are highly susceptible to infection, whereas mice of such strains as C57 BI/10SNJ or C57BI/KsJ were highly resistant to challenge. Since resistance to infection with C. albicans is associated with cell-mediated processes, and therefore with T-lymphocytes, thymic hormones should have an effect on the host response.
Thymosin fraction 5, thymosin a1 or α11 was injected daily i.p. in graded doses into three different groups of mice, beginning two days before intravenous challenge with 4x10^4 cells of Candida albicans.
Mice were treated daily with the indicated doses of thymosin fraction 5, thymosin a1 or thymosin α11 and challenged with 4x 10^4 cells of C. a/bicans two days after the start of treatment
^* Three mice from each set were sacrificed on days 7,14 and 21 after infection and the values represent
the average number of organisms in the left kidneys of the nine mice in each set.

[1] = system: T cell differentiation and function; test: In vivo assay systems designed to measure T cell differentiation and function
Description: The present invention relates to the isolation and first complete structural determination of a new polypeptide (thymosin α11 ) isolated from thymosin fraction 5, to pharmaceutically acceptable acid and base addition salts thereof and to pharmaceutical compositions containing this compound or its salts.

With “AcSer-Asp-Ala-Ala-Val-Asp-Thr-Ser-Ser-Glu-ile-Thr-Thr-Lys-Asp-Leu-Lys-Glu-Lys-Lys-Glu-Val-Val-Glu-Glu-Ala-Glu-Asn-Gly-Arg-Glu-Ala-Pro-Ala-AsnOH [thymosin α11]” the “potency relative to fraction 5 in ability to induce resistance to infection with C. albicans” value (Candida albicans; compared on optimum daily doses) was “about 30 times”, the “daily doses at which most active” value (Candida albicans; i.p., daily, resistance to infection with C. albicans) was 160-320 ng per mouse and the “protection in comparison with control mice” value (Candida albicans; injected daily i.p. in graded doses, beginning two days before intravenous challenge with 4x10^4 cells of Candida albicans) was “provided protection”. For the same substance, the “potency of thymosin a1 and thymosin α11 relative to each other” value (Candida albicans; resistance to infection with C. albicans) was “approximately equal in potency” and the “biological activity compared with thymosin a1” value [1] was “same qualitative and quantitative biological activity as thymosin a1”.
